Key:
[1] = test system: ISC-enriched organoids; test: Primary screen, 384-well 2.5-D organoid differentiation (ENR+CD, 6 days): carbachol-induced lysozyme secretion (LYZ.S); assay type: cell-based, murine; conditions: primary screen; for Z.LYZ.S: standard z score; for SSMD.LYZ.S: strictly standardized mean difference; for Dose.FC.LYZ.S: FC vs plate median; for Dose.FC.LYZ.S (log 2 fold change): vs plate median
Description: (§1) High-throughput screening.

[2] = test system: ISC-enriched organoids; test: Primary screen, 384-well 2.5-D organoid differentiation (ENR+CD, 6 days, Target Selective Inhibitor Library, vs whole-plate median): ATP (CellTiter-Glo 3D, CTG); conditions: for Z.CTG: standard z score of FC; for SSMD.CTG: strictly standardized mean difference; for SSMD.CTG / Dose.FC.CTG / Z.CTG (standard z score) / Dose.FC.CTG (log 2 fold change): primary screen; for Dose.FC.CTG: FC vs plate median; for Dose.FC.CTG (log 2 fold change): vs plate median
[3] = test system: ISC-enriched organoids; test: Primary screen, 384-well 2.5-D organoid differentiation (ENR+CD, 6 days): basal lysozyme secretion (LYZ.NS); assay type: cell-based, murine; conditions: for SSMD.LYZ.NS: strictly standardized mean difference; for SSMD.LYZ.NS / Dose.FC.LYZ.NS / Z.LYZ.NS (standard z score) / Dose.FC.LYZ.NS (log 2 fold change): primary screen; for Dose.FC.LYZ.NS: FC vs plate median; for Z.LYZ.NS: standard z score of FC; for Dose.FC.LYZ.NS (log 2 fold change): vs plate median
Description: as §1

[4] = 1st of the 4 dose lines of the treatment (dose not given)
[5] = 2nd of the 4 dose lines of the treatment (dose not given)
[6] = 3rd of the 4 dose lines of the treatment (dose not given)
[7] = 4th of the 4 dose lines of the treatment (dose not given)

For Cc1ccccc1C(=O)Nc1ccc(C(=O)N2CCCC(N(C)C)c3ccccc32)cc1 (centres unmarked) [Mozavaptan], which Z.LYZ.S [1, 4] is on record?
The Z.LYZ.S was 0.557.

And the Z.LYZ.S [1, 5]?
The Z.LYZ.S was 1.068.

What about the Z.LYZ.S [1, 6] of the same compound?
The Z.LYZ.S was 0.688.

What about the Z.LYZ.S [1, 7] of the same compound?
The Z.LYZ.S was −1.745.

And the SSMD.LYZ.S [1, 4]?
Its SSMD.LYZ.S is 0.266.

And the SSMD.LYZ.S [1, 5]?
Its SSMD.LYZ.S is 0.560.

And the SSMD.LYZ.S [1, 6]?
Its SSMD.LYZ.S is 0.775.

What about the SSMD.LYZ.S [1, 7] of the same compound?
Its SSMD.LYZ.S is −1.480.

And the Z.CTG ([2]; Dose 0.08 uM)?
The Z.CTG was 0.765.

And the Z.CTG ([2]; Dose 0.40 uM)?
Its Z.CTG is 0.562.

And the Z.CTG ([2]; Dose 2.00 uM)?
The Z.CTG was 0.259.

What about the Z.CTG ([2]; Dose 10.00 uM) of the same compound?
The Z.CTG was −0.803.

What about the SSMD.CTG [2, 4] of the same compound?
The SSMD.CTG was 0.521.

What about the SSMD.CTG [2, 5] of the same compound?
Its SSMD.CTG is 0.427.

And the SSMD.CTG [2, 6]?
Its SSMD.CTG is 0.274.

What about the SSMD.CTG [2, 7] of the same compound?
The SSMD.CTG was −0.812.

And the SSMD.LYZ.NS [3, 4]?
The SSMD.LYZ.NS was 0.283.

And the SSMD.LYZ.NS [3, 5]?
Its SSMD.LYZ.NS is −0.203.

What about the SSMD.LYZ.NS [3, 6] of the same compound?
Its SSMD.LYZ.NS is 0.340.

And the SSMD.LYZ.NS [3, 7]?
Its SSMD.LYZ.NS is −1.544.

Which Dose.FC.LYZ.S ([1]; Dose 0.08 uM) does the source give for CC(C)(C)n1nc(-c2ccc(Cl)cc2)c2c(N)ncnc21 [PP2] here?
Its Dose.FC.LYZ.S is 0.058 log 2 fold change.

What about the Dose.FC.LYZ.S ([1]; Dose 0.40 uM) of the same compound?
Its Dose.FC.LYZ.S is 0.145 log 2 fold change.

What about the Dose.FC.LYZ.S ([1]; Dose 2.00 uM) of the same compound?
Its Dose.FC.LYZ.S is 0.113 log 2 fold change.

What about the Dose.FC.LYZ.S ([1]; Dose 10.00 uM) of the same compound?
The Dose.FC.LYZ.S was 0.027 log 2 fold change.

And the Dose.FC.CTG ([2]; Dose 0.08 uM)?
The Dose.FC.CTG was −0.693 log 2 fold change.

What about the Z.CTG ([2]; Dose 0.08 uM) of the same compound?
Its Z.CTG is −1.655.

What about the Dose.FC.CTG ([2]; Dose 0.40 uM) of the same compound?
Its Dose.FC.CTG is 0.130 log 2 fold change.

What about the Z.CTG ([2]; Dose 0.40 uM) of the same compound?
The Z.CTG was 0.312.

And the Dose.FC.CTG ([2]; Dose 2.00 uM)?
The Dose.FC.CTG was −0.382 log 2 fold change.

What about the Z.CTG ([2]; Dose 2.00 uM) of the same compound?
Its Z.CTG is −0.913.

What about the Dose.FC.CTG ([2]; Dose 10.00 uM) of the same compound?
The Dose.FC.CTG was −0.246 log 2 fold change.

And the Z.CTG ([2]; Dose 10.00 uM)?
The Z.CTG was −0.587.

And the Dose.FC.LYZ.NS ([3]; Dose 0.08 uM)?
Its Dose.FC.LYZ.NS is 0.033 log 2 fold change.

And the Z.LYZ.NS ([3]; Dose 0.08 uM)?
The Z.LYZ.NS was 0.285.

What about the Dose.FC.LYZ.NS ([3]; Dose 0.40 uM) of the same compound?
Its Dose.FC.LYZ.NS is 0.012 log 2 fold change.

What about the Z.LYZ.NS ([3]; Dose 0.40 uM) of the same compound?
Its Z.LYZ.NS is 0.104.

And the Dose.FC.LYZ.NS ([3]; Dose 2.00 uM)?
Its Dose.FC.LYZ.NS is 0.270 log 2 fold change.

What about the Z.LYZ.NS ([3]; Dose 2.00 uM) of the same compound?
The Z.LYZ.NS was 2.354.

What about the Dose.FC.LYZ.NS ([3]; Dose 10.00 uM) of the same compound?
Its Dose.FC.LYZ.NS is −0.027 log 2 fold change.

And the Z.LYZ.NS ([3]; Dose 10.00 uM)?
Its Z.LYZ.NS is −0.235.

With O=C(Nc1cccnc1)N1CCC(Cc2cccc(Oc3ccc(C(F)(F)F)cn3)c2)CC1 [PF-3845] as the compound, how does the Dose.FC.LYZ.S ([1]; Dose 0.08 uM) read?
The Dose.FC.LYZ.S was 0.027 log 2 fold change.

And the Dose.FC.LYZ.S ([1]; Dose 0.40 uM)?
Its Dose.FC.LYZ.S is −0.061 log 2 fold change.

What about the Dose.FC.LYZ.S ([1]; Dose 2.00 uM) of the same compound?
The Dose.FC.LYZ.S was −0.032 log 2 fold change.

And the Dose.FC.LYZ.S ([1]; Dose 10.00 uM)?
The Dose.FC.LYZ.S was −0.195 log 2 fold change.

And the Dose.FC.CTG ([2]; Dose 0.08 uM)?
Its Dose.FC.CTG is −0.047 log 2 fold change.

What about the Z.CTG ([2]; Dose 0.08 uM) of the same compound?
Its Z.CTG is −0.112.

And the Dose.FC.CTG ([2]; Dose 0.40 uM)?
The Dose.FC.CTG was 0.052 log 2 fold change.

And the Z.CTG ([2]; Dose 0.40 uM)?
Its Z.CTG is 0.125.

And the Dose.FC.CTG ([2]; Dose 2.00 uM)?
The Dose.FC.CTG was −0.103 log 2 fold change.

And the Z.CTG ([2]; Dose 2.00 uM)?
The Z.CTG was −0.246.

And the Dose.FC.CTG ([2]; Dose 10.00 uM)?
Its Dose.FC.CTG is −0.286 log 2 fold change.

What about the Z.CTG ([2]; Dose 10.00 uM) of the same compound?
Its Z.CTG is −0.684.

And the Dose.FC.LYZ.NS ([3]; Dose 0.08 uM)?
Its Dose.FC.LYZ.NS is 0.061 log 2 fold change.

What about the Z.LYZ.NS ([3]; Dose 0.08 uM) of the same compound?
The Z.LYZ.NS was 0.532.

And the Dose.FC.LYZ.NS ([3]; Dose 0.40 uM)?
Its Dose.FC.LYZ.NS is −0.077 log 2 fold change.

What about the Z.LYZ.NS ([3]; Dose 0.40 uM) of the same compound?
The Z.LYZ.NS was −0.668.

And the Dose.FC.LYZ.NS ([3]; Dose 2.00 uM)?
Its Dose.FC.LYZ.NS is −0.015 log 2 fold change.

And the Z.LYZ.NS ([3]; Dose 2.00 uM)?
Its Z.LYZ.NS is −0.131.

What about the Dose.FC.LYZ.NS ([3]; Dose 10.00 uM) of the same compound?
The Dose.FC.LYZ.NS was −0.131 log 2 fold change.

And the Z.LYZ.NS ([3]; Dose 10.00 uM)?
The Z.LYZ.NS was −1.137.

Which “Dose.FC.LYZ.S (log 2 fold change)” value ([1]; Dose 0.08 uM) does the source give for O=C(NCc1cccc(O)c1)Nc1nc(-c2ccncc2)cs1 [RKI-1447] here?
The value was −0.056.

What about the “Dose.FC.LYZ.S (log 2 fold change)” value ([1]; Dose 0.40 uM) of the same compound?
The value was −0.064.

What about the “Dose.FC.LYZ.S (log 2 fold change)” value ([1]; Dose 2.00 uM) of the same compound?
The value was −0.017.

And the “Dose.FC.LYZ.S (log 2 fold change)” value ([1]; Dose 10.00 uM)?
The value was −0.297.

And the “Z.CTG (standard z score)” value ([2]; Dose 0.08 uM)?
Its value is −0.948.

What about the “Dose.FC.CTG (log 2 fold change)” value ([2]; Dose 0.08 uM) of the same compound?
Its value is −0.397.

And the “Z.CTG (standard z score)” value ([2]; Dose 0.40 uM)?
The value was −0.441.

What about the “Dose.FC.CTG (log 2 fold change)” value ([2]; Dose 0.40 uM) of the same compound?
Its value is −0.184.

And the “Z.CTG (standard z score)” value ([2]; Dose 2.00 uM)?
Its value is −0.540.

What about the “Dose.FC.CTG (log 2 fold change)” value ([2]; Dose 2.00 uM) of the same compound?
Its value is −0.226.

And the “Z.CTG (standard z score)” value ([2]; Dose 10.00 uM)?
The value was −0.816.

What about the “Dose.FC.CTG (log 2 fold change)” value ([2]; Dose 10.00 uM) of the same compound?
The value was −0.342.

And the “Z.LYZ.NS (standard z score)” value ([3]; Dose 0.08 uM)?
Its value is −0.055.

And the “Dose.FC.LYZ.NS (log 2 fold change)” value ([3]; Dose 0.08 uM)?
The value was −0.006.

And the “Z.LYZ.NS (standard z score)” value ([3]; Dose 0.40 uM)?
The value was −0.803.

And the “Dose.FC.LYZ.NS (log 2 fold change)” value ([3]; Dose 0.40 uM)?
The value was −0.092.

What about the “Z.LYZ.NS (standard z score)” value ([3]; Dose 2.00 uM) of the same compound?
The value was −0.077.

What about the “Dose.FC.LYZ.NS (log 2 fold change)” value ([3]; Dose 2.00 uM) of the same compound?
The value was −0.009.

And the “Z.LYZ.NS (standard z score)” value ([3]; Dose 10.00 uM)?
The value was −1.594.

What about the “Dose.FC.LYZ.NS (log 2 fold change)” value ([3]; Dose 10.00 uM) of the same compound?
The value was −0.183.

From patent publication US20230398130A1, “METHODS AND COMPOSITIONS FOR DIFFERENTIATING STEM CELLS” (Massachusetts Institute of Technology, priority 2020, published 2023)
